Experiments:
[1] = human
[2] = human; remark: listed apart in the source
[3] = human; remark: listed apart in the source
[4] = human; remark: listed apart in the source
[5] = human, serum
[6] = Proposed mechanism(s) of liver damage. [column 'MEC' in source]; conditions: human
[7] = human, serum, 4383 h
[8] = human; remark: listed apart in the source
[9] = human, serum; remark: listed apart in the source
[10] = human; remark: listed apart in the source
[11] = Times to onset, minimal and maximal, observed in the indexed observations. [column 'DELAI' in source]; conditions: human
[12] = human; remark: listed apart in the source
[13] = Highest frequency of acute liver toxicity observed during clinical trials, expressed as a percentage. [column '% AIGUE' in source]; conditions: human
[14] = human; remark: listed apart in the source
[15] = Highest frequency of moderate liver toxicity observed during clinical trials, expressed as a percentage. [column '% BIOL' in source]; conditions: human
[16] = human; remark: listed apart in the source
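Throughout, for Hepatotoxicity (association with vascular disease): count of indexed literature references reporting vascular liver injury in humans, e.g. peliosis hepatitis, hepatic veno-occlusive disease or Budd-Chiari syndrome.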
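Throughout, for Hepatotoxicity (benign tumour): value is a count of indexed literature references citing a benign tumour confirmed by histopathology.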
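Throughout, for Hepatotoxicity (choleostasis): human cholestatic liver injury, shown by histopathology or by peak ALT or AST elevation over alkaline phosphatase ratio below 2, value counts indexed literature reports.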
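Throughout, for Hepatotoxicity (chronic liver disease): chronic liver injury confirmed by histopathology or persistently raised serum aminotransferase activity beyond 6 months, value given as the count of indexed literature references.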
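Throughout, for Hepatotoxicity (cirrhosis): value is a count of indexed literature references reporting cirrhosis confirmed by histopathology.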
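Throughout, for Hepatotoxicity (cytolytic): human cytolytic liver injury, shown by histopathology or by a ratio above 5 of peak ALT or AST elevation to alkaline phosphatase elevation, value counts indexed references.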
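Throughout, for Hepatotoxicity (granulomatous hepatitis): value is a count of indexed literature references reporting granulomatous liver disease confirmed by histopathology.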
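Throughout, for Hepatotoxicity (malignant tumour): malignant tumour confirmed by histopathology, value gives the count of indexed literature references reporting it.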
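Throughout, for Hepatotoxicity (severe hepatitis): human clinical data: severe hepatitis, meaning potentially life-threatening liver failure or clinically observed cases, the value counts how many indexed literature references report it.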
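Throughout, for Hepatotoxicity (steatosis): steatosis confirmed by histopathology, value is the count of indexed references.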

| Molecule | Hepatotoxicity (association with vascular disease) [1] | Hepatotoxicity (steatosis) [2] | Hepatotoxicity (benign tumour) [3] | Hepatotoxicity (choleostasis) [4] | Hepatotoxicity (moderate) [5] | Hepatotoxicity (mechanism) [6] | Hepatotoxicity (chronic liver disease) [7] | Hepatotoxicity (malignant tumour) [8] | Hepatotoxicity (acute) [9] | Hepatotoxicity (granulomatous hepatitis) [10] | Hepatotoxicity (time to onset) [11] | Hepatotoxicity (severe hepatitis) [12] | Hepatotoxicity (acute) [13] [%] | Hepatotoxicity (cytolytic) [14] | Hepatotoxicity (moderate) [15] [%] | Hepatotoxicity (cirrhosis) [16] | also measured |
| --- | --- | --- | --- | --- | --- | --- | --- | --- | --- | --- | --- | --- | --- | --- | --- | --- | --- |
| COc1cnc(NS(=O)(=O)c2ccc(N)cc2)nc1 | 0 | 0 | 0 | 1 | 0 | Allergic | 0 | 0 | 2 | 0 | 10 days | 0 | 0 | 0 | 0 | 0 |  |
| CC(O)CCC(=O)c1ccoc1 (configuration not stated) | 0 | 0 | 0 | 0 | 0 | Dose-dependant | 0 | 0 | 1 | 0 | 2 days - 8 days | 1 | 11.3 | 0 | 0 | 0 |  |
| CCCc1nn(C)c2c(=O)[nH]c(-c3cc(S(=O)(=O)N4CCN(C)CC4)ccc3OCC)nc12 | 0 | 0 | 0 | 0 | 0 | Dose-dependant | 0 | 0 | 2 | 0 | 2 days - 4 months | 0 | 0 | 2 | 0 | 0 |  |
| O=C(O)c1ccccc1O.O=C(O)c1ccccc1O.O=C(O)c1ccccc1O | 0 | 0 | 0 |  | 0 |  | 0 | 0 | 1 |  | 3 days |  |  |  |  | 0 | Hepatotoxicity (choleostasis) ([4]; Liver): 0; Hepatotoxicity (mechanism) ([6]; Liver): Allergic; Hepatotoxicity (granulomatous hepatitis) ([10]; Liver): 0; Hepatotoxicity (severe hepatitis) ([12]; Liver): 1; Hepatotoxicity (acute) ([13]; Liver): 0%; Hepatotoxicity (cytolytic) ([14]; Liver): 1; Hepatotoxicity (moderate) ([15]; Liver): 0% |
| CNC=O | 0 | 0 | 0 | 0 | 13 | Dose-dependant | 0 | 0 | 4 | 0 | 3 days - 1 week | 2 | 0 | 1 | 75 | 0 |  |
| CC(=O)Nc1cc([As](=O)(O)O)ccc1O [ACETARSONE] | 0 | 0 | 0 | 0 | 0 | Allergic | 0 | 0 | 2 | 0 | 2 cures - 3 cures | 0 | 0 | 0 | 0 | 0 |  |
| CC(=O)c1ccc(S(=O)(=O)NC(=O)NC2CCCCC2)cc1 [ACETOHEXAMIDE] | 0 | 0 | 0 | 0 | 0 | Dose-dependant | 0 | 0 | 6 | 0 | 3 weeks - 17 months | 0 | 0 | 2 | 0 | 1 |  |
| CCCCN1CCCCC1C(=O)Nc1c(C)cccc1C (configuration not stated) [BUPIVACAINE] | 0 | 0 | 0 | 2 | 0 | Allergic | 0 | 0 | 2 | 0 | 2 weeks - 1 month | 0 | 0 | 1 | 0 | 0 |  |
| CC12CCC(CC1=O)C2(C)C (configuration not stated) [CAMPHOR] | 0 | 0 | 0 | 0 | 0 | Dose-dependant | 0 | 0 | 1 | 0 | 3 days | 0 | 0 | 1 | 0 | 0 |  |
| CC(C)(O)c1ccccc1CC[C@@H](SCC1(CC(=O)O)CC1)c1cccc(/C=C/c2ccc3ccc(Cl)cc3n2)c1 [MONTELUKAST] | 0 | 0 | 0 | 2 | 3 | Allergic | 0 | 0 |  | 0 | 3 days - 2 years | 0 |  | 2 | 13.9 | 0 |  |
| COc1c(N2C[C@@H]3CCCN[C@@H]3C2)c(F)cc2c(=O)c(C(=O)O)cn(C3CC3)c12 [MOXIFLOXACIN] | 0 | 0 | 0 | 1 | 3 | Dose-dependant | 0 | 0 |  | 0 | 26 days |  |  | 0 |  | 0 | Hepatotoxicity (severe hepatitis) ([12]; Liver): 0; Hepatotoxicity (moderate) ([15]; Liver): 6.9% |
| CCn1cc(C(=O)O)c(=O)c2ccc(C)nc21 [NALIDIXIC ACID] | 0 | 0 | 0 | 2 | 2 | Allergic | 0 | 0 |  | 0 | 2 weeks | 0 | 0 | 1 | 0 | 0 |  |
| CN1c2ccccc2C(NCCCCCCC(=O)O)c2ccc(Cl)cc2S1(=O)=O (configuration not stated) [TIANEPTINE] |  | 1 | 0 | 2 | 0 | Reactive metabolite | 0 | 0 | 4 | 0 | 1 week - 6 months | 0 | 0 | 3 | 0 | 0 |  |
| PEGASPARGASE | 0 | 0 | 0 | 0 | 0 | Dose-dependant | 0 | 0 | 2 | 0 |  | 0 | 7.7 | 0 | 0 | 0 |  |
| PEGLOTICASE | 0 | 0 | 0 | 0 | 1 | Dose-dependant | 0 | 0 | 0 | 0 |  | 0 | 0 | 0 | 3.7 | 0 |  |

Reference: ChEMBL document CHEMBL3137667, “[Drug-induced liver injury; fourteenth updated edition of the bibliographic database of liver injuries and related drugs]” (Gastroenterol Clin Biol, 2004)
